Source: BindingDB's records for doi:10.1021/jm040099a (Johnson & Johnson Pharmaceutical, 2005)
pIC50: −log10 of the molar value.

Legend:
[1] = target: Vascular endothelial growth factor receptor 2 (Rattus norvegicus, UniProt O08775); assay: Kinase Inhibition Assay
Procedure: (§1) The enzyme was assayed with a biotinylated peptide substrate and test compounds in the presence of 5 uM ATP/[gamma-33P]ATP in a streptavidin coated FlashPlate (Perkin-Elmer, Boston, MA). Inhibition of the enzymatic activity due to the compound was measured by observing a reduced amount of 33P-gamma-ATP incorporated into the immobilized peptide relative to untreated controls. Linear regression analysis of the percent of inhibition by the test compound was used to calculate IC50 values.

[2] = target: Cyclin-dependent kinase/G2/mitotic-specific cyclin- 1 (Homo sapiens, UniProt P06493); assay: Kinase Inhibition Assay; conditions: pH 8; 30 °C
Procedure: as §1

Chain of Vascular endothelial growth factor receptor 2 (O08775 whole entry): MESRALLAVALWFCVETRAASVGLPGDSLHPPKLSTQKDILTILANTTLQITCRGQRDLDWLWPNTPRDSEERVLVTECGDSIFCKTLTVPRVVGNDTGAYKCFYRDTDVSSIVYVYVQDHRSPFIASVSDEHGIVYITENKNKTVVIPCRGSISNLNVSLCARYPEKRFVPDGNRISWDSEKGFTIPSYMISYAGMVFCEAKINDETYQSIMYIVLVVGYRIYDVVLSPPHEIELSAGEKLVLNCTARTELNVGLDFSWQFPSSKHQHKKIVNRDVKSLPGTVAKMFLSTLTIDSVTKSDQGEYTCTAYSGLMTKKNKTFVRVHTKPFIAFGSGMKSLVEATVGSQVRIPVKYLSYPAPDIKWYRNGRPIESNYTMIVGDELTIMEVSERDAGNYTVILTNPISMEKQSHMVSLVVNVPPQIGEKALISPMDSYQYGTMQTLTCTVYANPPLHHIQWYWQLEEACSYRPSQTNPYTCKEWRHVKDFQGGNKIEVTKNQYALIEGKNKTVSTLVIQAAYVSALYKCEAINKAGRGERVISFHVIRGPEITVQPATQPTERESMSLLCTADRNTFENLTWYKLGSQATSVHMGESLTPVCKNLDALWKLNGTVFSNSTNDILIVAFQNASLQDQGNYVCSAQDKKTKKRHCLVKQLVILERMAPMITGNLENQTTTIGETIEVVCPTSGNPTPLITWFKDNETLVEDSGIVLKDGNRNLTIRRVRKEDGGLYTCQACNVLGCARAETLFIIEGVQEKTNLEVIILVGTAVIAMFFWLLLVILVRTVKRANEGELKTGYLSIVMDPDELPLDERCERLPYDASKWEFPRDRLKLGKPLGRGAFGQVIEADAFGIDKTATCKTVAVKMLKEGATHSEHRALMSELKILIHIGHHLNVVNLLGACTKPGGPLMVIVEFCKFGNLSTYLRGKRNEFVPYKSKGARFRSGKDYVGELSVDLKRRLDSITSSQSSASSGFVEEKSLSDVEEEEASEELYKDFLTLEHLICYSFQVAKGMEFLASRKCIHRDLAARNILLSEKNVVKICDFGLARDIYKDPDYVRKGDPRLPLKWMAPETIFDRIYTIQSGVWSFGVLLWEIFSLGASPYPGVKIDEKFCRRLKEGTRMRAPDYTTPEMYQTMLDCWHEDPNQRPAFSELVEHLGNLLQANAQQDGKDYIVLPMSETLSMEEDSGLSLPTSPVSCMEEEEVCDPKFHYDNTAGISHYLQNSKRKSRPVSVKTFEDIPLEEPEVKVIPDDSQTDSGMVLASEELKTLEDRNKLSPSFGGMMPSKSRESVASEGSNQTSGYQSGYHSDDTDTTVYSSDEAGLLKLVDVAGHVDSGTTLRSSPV
Chain of Cyclin-dependent kinase/G2/mitotic-specific cyclin- 1 (P06493 whole entry): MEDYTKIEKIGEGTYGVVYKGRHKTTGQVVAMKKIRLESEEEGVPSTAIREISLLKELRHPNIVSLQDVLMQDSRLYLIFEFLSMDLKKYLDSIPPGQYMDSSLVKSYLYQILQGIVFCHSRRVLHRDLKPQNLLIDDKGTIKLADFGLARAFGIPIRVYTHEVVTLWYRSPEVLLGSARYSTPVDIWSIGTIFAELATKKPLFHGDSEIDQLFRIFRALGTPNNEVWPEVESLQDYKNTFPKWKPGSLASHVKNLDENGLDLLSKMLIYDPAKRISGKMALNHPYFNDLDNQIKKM
Chain of Cyclin-dependent kinase/G2/mitotic-specific cyclin- 1 (P14635 whole entry, further chain): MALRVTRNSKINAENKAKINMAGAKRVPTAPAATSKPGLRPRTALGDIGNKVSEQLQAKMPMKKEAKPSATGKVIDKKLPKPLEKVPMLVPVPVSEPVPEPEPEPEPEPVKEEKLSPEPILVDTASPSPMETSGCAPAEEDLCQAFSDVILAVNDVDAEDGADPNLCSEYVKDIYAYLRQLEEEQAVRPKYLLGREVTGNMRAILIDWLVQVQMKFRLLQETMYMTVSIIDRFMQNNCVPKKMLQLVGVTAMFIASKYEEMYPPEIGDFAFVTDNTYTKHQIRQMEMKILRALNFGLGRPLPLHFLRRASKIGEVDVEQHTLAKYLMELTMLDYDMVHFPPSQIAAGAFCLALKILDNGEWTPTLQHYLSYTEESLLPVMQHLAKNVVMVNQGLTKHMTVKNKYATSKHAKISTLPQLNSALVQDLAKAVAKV

Row | SMILES | pIC50 [1] | pIC50 [2]
1 | OCCCNc1ccc(-c2cncc(Nc3cccc(Cl)c3)n2)nc1 [3-{[6-[6-((3-Chlorophenyl)amino)pyrazin-2-yl]pyridin-3-yl]amino}propan-1-ol] | < 5.00 | –
2 | OCCCNc1cncc(-c2ncc(Nc3cccc(Cl)c3)cn2)c1 [3-[(5-{5-[(3-chlorophenyl)amino]pyrimidin-2-yl}pyridin-3-yl)amino]propan-1-ol] | < 5.00 | –
3 | OCCCNc1cccc(-c2cncc(Nc3cccc(Cl)c3)n2)n1 [3-[(6-{6-[(3-chlorophenyl)amino]pyrazin-2-yl}pyridin-2-yl)amino]propan-1-ol] | < 5.00 | –
4 | OCCCNc1cncc(-c2cc(Nc3cccc(Cl)c3)ncn2)c1 [3-[(5-{6-[(3-chlorophenyl)amino]pyrimidin-4-yl}pyridin-3-yl)amino]propan-1-ol] | < 5.00 | –

The remaining lines, values ahead:

Row | pIC50 [1] | pIC50 [2] | SMILES
5 | < 5.00 | < 5.00 | OCCCNc1cncc(-c2ncncc2Nc2cccc(Cl)c2)c1 [3-[[5-[5-[(3-Chlorophenyl)amino]-4-pyrimidinyl]-3-pyridinyl]amino]-1-propanol]
6 | < 5.00 | – | OCCCNc1cncc(-c2cnc(Nc3cccc(Cl)c3)cn2)c1 [3-[[5-[5-[(3-chlorophenyl)amino]pyrazinyl]-3-pyridinyl]amino]-1-propanol]
